The molecules below were run on Musca domestica (assay: Insecticidal test against Musca domestica). Details: 24 h.
Format: in vivo
Procedure: In the bottom of a polyethylene cup having a diameter of 5.5 cm was placed a piece of filter paper having the same size. A 200-fold water dilution (500 ppm) of a test compound formulation obtained according to Formulation Example 1 was added dropwise at a volume of 0.7 ml on the filter paper, and about 30 mg of sucrose as a diet was uniformly placed thereon. Ten female adults of houseflies (Musca domestica) were set free in the cup, and the cup was kept covered. After 1 day, the survival of the adults was determined to determine the mortality.

| Structure (SMILES) | mortality at 500 µg/mL [%] |
| --- | --- |
| CC(COCCCCCOc1c(Cl)cc(OCC=C(Cl)Cl)cc1Cl)=NOC(=O)NC(C)(C)C [(180), 5-(2,6-dichloro-4-(3,3-dichloro-2-propenyloxy)phenoxy)pentyloxyacetone O-(N-tert-butylcarbamoyl)oxime] | ≥ 80 |

Same assay, conditions: 24 h, 500 ppm water dilution, 0.7 ml on filter paper with sucrose, female adults, after 1 day, read-out: mortality

| Structure (SMILES) | mortality at 500 µg/mL [%] |
| --- | --- |
| CCON=Cc1cccc(COc2c(Cl)cc(OCC=C(Cl)Cl)cc2Cl)c1 [(378), 3-((2,6-dichloro-4-(3,3-dichloro-2-propenyloxy)phenoxy)methyl)benzaldehyde O-ethyloxime] | ≥ 80 |
| CC(C)(C)C=NOCCCCCOc1c(Cl)cc(OCC=C(Cl)Cl)cc1Cl [(545), trimethylacetaldehyde O-(5-(2,6-dichloro-4-(3,3-dichloro-2-propenyloxy)phenoxy)pentyl)oxime] | ≥ 80 |

These molecules were tested on Plutella xylostella (assay: Insecticidal test against Plutella xylostella). Details: 96 h.
Format: in vivo
Procedure: To a water dilution (50 ppm) of a test compound formulation obtained according to Formulation Example 1 was added a spreading agent (New RINOU available from Nihon Noyaku K.K.) at a dilution ratio of 3000-fold. The dilution was sprayed over potted cabbages at the four to five leaf stage at a volume of 25 ml per pot. After the treated plants were air dried, ten third-instar larvae of Plutella xylostella were set free on each pot. After 4 days, the mortality was determined.

| Structure (SMILES) | mortality at 50 µg/mL [%] |
| --- | --- |
| CC(COCCCCCOc1c(Cl)cc(OCC=C(Cl)Cl)cc1Cl)=NOC(=O)NC(C)(C)C [(180), 5-(2,6-dichloro-4-(3,3-dichloro-2-propenyloxy)phenoxy)pentyloxyacetone O-(N-tert-butylcarbamoyl)oxime] | ≥ 80 |

Same assay, conditions: 96 h, 50 ppm water dilution sprayed over potted cabbages, 25 ml per pot, third-instar larvae, after 4 days, read-out: mortality

| Structure (SMILES) | mortality at 50 µg/mL [%] |
| --- | --- |
| CC(=NO)c1ccc(OCCCCCOc2c(Cl)cc(OCC=C(Cl)Cl)cc2Cl)cc1 [(334), 4′-(5-(2,6-dichloro-4-(3,3-dichloro-2-propenyloxy)phenoxy)-pentyloxy)acetophenone oxime] | ≥ 80 |
| ClC(Cl)=CCOc1cc(Cl)c(OCCCCON=C2CCOCC2)c(Cl)c1 [(573), tetrahydro-4H-pyran-4-one O-(4-(2,6-dichloro-4-(3,3-dichloro-2-propenyloxy)phenoxy)butyl)oxime] | ≥ 80 |
| CCCCC(=NO)c1cccc(OCCCOc2c(Cl)cc(OCC=C(Cl)Cl)cc2Cl)c1 [(336), 3′-(3-(2,6-dichloro-4-(3,3-dichloro-2-propenyloxy)phenoxy)propyloxy)valerophenone oxime] | ≥ 80 |
| ClC(Cl)=CCON=Cc1ccc(OCCCCOc2c(Cl)cc(OCC=C(Cl)Cl)cc2Cl)cc1 [(285), 4-(4-(2,6-dichloro-4-(3,3-dichloro-2-propenyloxy)phenoxy)butyloxy)benzaldehyde O-(3,3-dichloro-2-propenyl)oxime] | ≥ 80 |
| ClC(Cl)=CCOc1cc(Cl)c(OCCCCCON=C2CCOCC2)c(Cl)c1 [(574), tetrahydro-4H-pyran-4-one O-(5-(2,6-dichloro-4-(3,3-dichloro-2-propenyloxy)phenoxy)pentyl)oxime] | ≥ 80 |
| ClC(Cl)=CCON=Cc1ccc(OCCOc2c(Cl)cc(OCC=C(Cl)Cl)cc2Cl)cc1 [(281), 4-(2-(2,6-dichloro-4-(3,3-dichloro-2-propenyloxy)phenoxy)-ethoxy)benzaldehyde O-(3,3-dichloro-2-propenyl)oxime] | ≥ 80 |
| C=CCON=Cc1ccc(CCCOc2c(Cl)cc(OCC=C(Cl)Cl)cc2Cl)cc1 [(370), 4-(3-(2,6-dichloro-4-(3,3-dichloro-2-propenyloxy)phenoxy)propyl)benzaldehyde O-allyl oxime] | ≥ 80 |
| ClC(Cl)=CCON=CCCOc1c(Cl)cc(OCC=C(Cl)Cl)cc1Cl [(75), 3-(2,6-dichloro-4-(3,3-dichloro-2-propenyloxy)phenoxy)propionaldehyde O-(3,3-dichloro-2-propenyl)oxime] | ≥ 80 |
| FC(F)(F)c1ccc(C=NOCCCOc2c(Cl)cc(OCC=C(Cl)Cl)cc2Cl)cc1 [(524), 4-(trifluoromethyl)benzaldehyde O-(3-(2,6-dichloro-4-(3,3-dichloro-2-propenyloxy)phenoxy)propyl)oxime] | ≥ 80 |

What follows are molecules tested on Helicoverpa armigera (assay: Insecticidal test against Helicoverpa armigera). Details: 120 h, 100 ppm water dilution, cotton leaf fragment immersed 10 seconds, third-instar larvae, after 5 days.
Format: in vivo
Procedure: A cotton leaf fragment (diameter, 5 cm) was immersed for 10 seconds Lin a water dilution (100 ppm) of a test compound formulation obtained according to Formulation Example 1. This fragment was taken out from the dilution, air dried, and placed in a polyethylene cup having a diameter of 5.5 cm. One third-instar larva of Helicoverpa armigera was set free in each cup. Ten larvae were used for each treatment. After 5 days, the mortality of the larvae was determined.

| Structure (SMILES) | mortality at 100 µg/mL [%] |
| --- | --- |
| CC(C)(C)ON=Cc1ccc(OCCCOc2c(Cl)cc(OCC=C(Cl)Cl)cc2Cl)cc1 [(291), 4-(3-(2,6-dichloro-4-(3,3-dichloro-2-propenyloxy)phenoxy)propyloxy)benzaldehyde O-t-butyloxime] | ≥ 80 |
| CC(C)(C)ON=CCOCCCCCOc1c(Cl)cc(OCC=C(Cl)Cl)cc1Cl [(14), 5-(2,6-dichloro-4-(3,3-dichloro-2-propenyloxy)phenoxy)pentyloxyacetaldehyde O-tert-butyloxime] | ≥ 80 |
| CC(=NOCCCCOc1c(Cl)cc(OCC=C(Cl)Cl)cc1Cl)c1ccc(C(F)(F)F)cc1 [(531), 4′-(trifluoromethyl)acetophenone O-(4-(2,6-dichloro-4-(3,3-dichloro-2-propenyloxy)phenoxy)butyl)oxime] | ≥ 80 |
| CCON=Cc1ccc(OCCCOc2c(Cl)cc(OCC=C(Cl)Cl)cc2Cl)cc1 [(288), 4-(3-(2,6-dichloro-4-(3,3-dichloro-2-propenyloxy)phenoxy)propyloxy)benzaldehyde O-ethyloxime] | ≥ 80 |
| C=CCON=Cc1ccc(OCCCOc2c(Cl)cc(OCC=C(Cl)Cl)cc2Cl)cc1 [(342), 4-(3-(2,6-dichloro-4-(3,3-dichloro-2-propenyloxy)phenoxy)propyloxy)benzaldehyde O-allyloxime] | ≥ 80 |
| ClC(Cl)=CCON=CCCCCOc1c(Cl)cc(OCC=C(Cl)Cl)cc1Cl [(17), 5-(2,6-dichloro-4-(3,3-dichloro-2-propenyloxy)phenoxy)pentanal O-(3,3-dichloro-2-propenyl)oxime] | ≥ 80 |
| CC(C)(C)C=NOCCCCCOc1c(Cl)cc(OCC=C(Cl)Cl)cc1Cl [(545), trimethylacetaldehyde O-(5-(2,6-dichloro-4-(3,3-dichloro-2-propenyloxy)phenoxy)pentyl)oxime] | ≥ 80 |
| C=CCON=Cc1ccc(COc2c(Cl)cc(OCC=C(Cl)Cl)cc2Cl)cc1 [(312), 4-(2,6-dichloro-4-(3,3-dichloro-2-propenyloxy)phenoxymethyl)benzaldehyde O-(2-propenyl)oxime] | ≥ 80 |
| CC(CC(C)C)=NOCCCCCOc1c(Cl)cc(OCC=C(Cl)Cl)cc1Cl [(564), 4-methyl-2-pentanone O-(5-(2,6-dichloro-4-(3,3-dichloro-2-propenyloxy)phenoxy)pentyl)oxime] | ≥ 80 |
| FC(F)(F)c1ccc(C=NOCCCCOc2c(Cl)cc(OCC=C(Cl)Cl)cc2Cl)cc1 [(529), 4-(trifluoromethyl)benzaldehyde O-(4-(2,6-dichloro-4-(3,3-dichloro-2-propenyloxy)phenoxy)butyl)oxime] | ≥ 80 |
| CC(=NOCCCCOc1c(Cl)cc(OCC=C(Cl)Cl)cc1Cl)C(C)(C)C [(562), 3,3-dimethyl-2-butanone O-(4-(2,6-dichloro-4-(3,3-dichloro-2-propenyloxy)phenoxy)butyl)oxime] | ≥ 80 |
| CCC(C)ON=Cc1ccc(COc2c(Cl)cc(OCC=C(Cl)Cl)cc2Cl)cc1 (centres unmarked) [(329), 4-(2,6-dichloro-4-(3,3-dichloro-2-propenyloxy)phenoxy)methylbenzaldehyde O-sec-butyloxime] | ≥ 80 |
| ClC(Cl)=CCON=Cc1ccc(CCOc2c(Cl)cc(OCC=C(Cl)Cl)cc2Cl)cc1 [(358), 4-(2-(2,6-dichloro-4-(3,3-dichloro-2-propenyloxy)phenoxy)ethyl)benzaldehyde O-(3,3-dichloro-2-propenyl)oxime] | ≥ 80 |
| C=CCON=Cc1ccc(CCOc2c(Cl)cc(OCC=C(Cl)Cl)cc2Cl)cc1 [(357), 4-(2-(2,6-dichloro-4-(3,3-dichloro-2-propenyloxy)phenoxy)ethyl)benzaldehyde O-allyloxime] | ≥ 80 |
| CCC(C)ON=Cc1ccc(CCOc2c(Cl)cc(OCC=C(Cl)Cl)cc2Cl)cc1 (centres unmarked) [(355), 4-(2-(2,6-dichloro-4-(3,3-dichloro-2-propenyloxy)phenoxy)ethyl)benzaldehyde O-sec-butyloxime] | ≥ 80 |

Each molecule was assayed on Cydia pomonella (assay: Insecticidal test against Cydia pomonella). Details: 168 h, 100 ppm water dilution, 0.2 ml on surface of artificial diet, eggs just before hatching, after 7 days.
Format: in vivo
Procedure: A water dilution (100 ppm) of a test compound formulation obtained according to Formulation Example 1 was added dropwise at a volume of 0.2 ml and spread over the surface of an artificial diet having a weight of 3 g, which had been prepared in a 30 ml polyethylene cup. After air drying, placed in the cup was a piece of wax paper (about 2.5 cm square) having about 20 eggs which had been laid by Cydia pomonella and were just before hatching. Four pieces of such wax paper were used for each treatment. After 7 days, the mortality of the larvae was determined.

| Structure (SMILES) | mortality at 100 µg/mL [%] |
| --- | --- |
| CCON=Cc1cccc(COc2c(Cl)cc(OCC=C(Cl)Cl)cc2Cl)c1 [(378), 3-((2,6-dichloro-4-(3,3-dichloro-2-propenyloxy)phenoxy)methyl)benzaldehyde O-ethyloxime] | ≥ 80 |
| ClC(Cl)=CCOc1cc(Cl)c(OCCCCCON=C2CCOCC2)c(Cl)c1 [(574), tetrahydro-4H-pyran-4-one O-(5-(2,6-dichloro-4-(3,3-dichloro-2-propenyloxy)phenoxy)pentyl)oxime] | ≥ 80 |
| ClC(Cl)=CCON=Cc1cccc(COc2c(Cl)cc(OCC=C(Cl)Cl)cc2Cl)c1 [(323), 3-(2,6-dichloro-4-(3,3-dichloro-2-propenyloxy)phenoxymethyl)benzaldehyde O-(3,3-dichloro-2-propenyl)oxime] | ≥ 80 |
| CCc1cc(OCC=C(Cl)Cl)cc(CC)c1OCCCCOCC=NOCC=C(Cl)Cl [(10), 4-(2,6-diethyl-4-(3,3-dichloro-2-propenyloxy)phenoxy)butyloxyacetaldehyde O-(3,3-dichloro-2-propenyl)oxime] | ≥ 80 |
| ClC(Cl)=CCOc1cc(Cl)c(OCCCC=NOCC=C(Br)Br)c(Cl)c1 [(25), 4-(2,6-dichloro-4-(3,3-dichloro-2-propenyloxy)phenoxy)butanal O-(3,3-dibromo-2-propenyl)oxime] | ≥ 80 |
| ClC(Cl)=CCOc1cc(Cl)c(OCc2cccc(C=NOCc3ccccc3)c2)c(Cl)c1 [(324), 3-(2,6-dichloro-4-(3,3-dichloro-2-propenyloxy)phenoxymethyl)benzaldehyde O-benzyloxime] | ≥ 80 |
| CC(=NOC(C)(C)C)c1ccc(OCCCOc2c(Cl)cc(OCC=C(Cl)Cl)cc2Cl)cc1 [(294), 4′-(3-(2,6-dichloro-4-(3,3-dichloro-2-propenyloxy)phenoxy)propyloxy)acetophenone O-tert-butyloxime] | ≥ 80 |

From patent publication US6437184B1, “Oxime compounds, their use, and intermediates for their production” (Sumitomo Chemical Company, Limited, priority 1997, dated 2002)
